Results on one compound are retold here after patent publication US20240309014A1, “MACROCYCLIC COMPOUNDS AND USES THEREOF” (President and Fellows of Harvard College, priority 2017, published 2024).

The test system of experiment [1] is FaDu subcutaneous xenograft. Kind of experiment: FaDu subcutaneous xenograft in combination with cetuximab, single dose (FIG. 16). The format is in vivo, athymic mice. To be noted: single dose Day 1. Here is the method: A human squamous cell carcinoma of the head and neck (SCCHN) cell line FaDu, which had been cultured in an RPMI-1640 medium containing 10% FBS, and penicillin-streptomycin, was adjusted to a concentration of 5×10^7 cells/mL with Hanks' Balanced Salt Solution to prepare a cell suspension. The cell suspension was inoculated in a volume of 100 μL into a subcutaneous part of a right flank of athymic mice (CAnN.Cg-Foxnlnu/CrlCrlj, female, 7 weeks old, Charles River Japan Inc.). Ten days after cell inoculation (Day 1), the length and the width of a tumor in each mouse were measured by using an electronic digital caliper (Mitutoyo Corporation), so as to calculate the volume of the tumor in accordance with the following calculation formula: […]
On the basis of TV, the mice were randomly grouped (Day 1). Each group was consisted in six mice. Compound (1) was dissolved in DMSO and a solution was stored in the freezer before use.

The subject of experiment [2] is human duodenal cell line HuTu 80 xenograft. The experiment in a line: HuTu 80 xenograft model as monotherapy (FIG. 23). The format is in vivo, nude mice. Here is the method:
A human duodenal cell line HuTu 80, which had been cultured in a EMEM containing 10% FBS, and penicillin-streptomycin, was adjusted to a concentration of 3×10^7 cells/mL in PBS to prepare a cell suspension. The cell suspension was inoculated in a volume of 100 μL into a subcutaneous part of a right flank of nude mice, 7 weeks of ages (CAnN.Cg-Foxnlnu/CrlCrlj, female, Charles River Laboratories Japan Inc.). Seven days after cell inoculation (Day 1), the shortest diameter and the longest diameter of a tumor in each mouse were measured by using an electronic digital caliper (Digimatic™ caliper, Mitutoyo Corporation), so as to calculate the volume of the tumor in accordance with the following calculation formulae: […]
On the basis of the volumes of tumors obtained on Day 1, the mice were grouped such that averages of the tumor volumes were substantially equal among the groups. The experiment was conducted on groups each consisting of six mice. Compound (1) was dissolved in DMSO and a solution was stored in the freezer before use. Immediately before the administration, the stock solution was diluted with saline. The test compound in saline was intravenously once-weekly administered at 45, 90, or 180 μg/kg for 2 weeks (on Day 1 and Day 8).

The subject of experiment [3] is microtubule dynamics in U2OS-EB3-AG osteosarcoma cell line. The experiment in a line: Cell-based microtubule dynamics assay. To be noted: 0.5 nM, around 60 minutes after addition. On the procedure: A cell-based microtubule (MT) dynamics assay was conducted with the U2OS-EB3-AG osteosarcoma cell line, in which the fusion protein of EB3 (a microtubule plus end binding protein) and Azami-Green (EB3-AG) was stably expressed. U2OS-EB3-AG cells were culture in RPMI-1640 medium containing 10% FBS, and penicillin-streptomycin, at 37° C. in a humidified 5% C02 atmosphere. The MT dynamics in the live cells can be visualized as the movement of the comet-like structure of EB3-AG. U2OS-EB3-AG cells plated on glass-base culture plates (EZVIEW plate, AGC Techno Glass, Japan) were treated with Compound (1) at the indicated concentration and the microtubule dynamics were monitored by time-lapse imaging using fluorescent microscope with 60-fold magnification oil- immersed objective lens (BZ-X710, KEYENCE, Japan). Higher magnification views of the boxed areas were shown in inlets. When treated with Compound (1) at 0.5 nM (IC50 value for antiproliferative activity in U20S-EB3-AG cells), the comet-like structures became hard to observe at around 60 minutes after the addition of the compound.

Experiment [4] concerns human synovial sarcoma cell line HS-SY-II xenograft. The experiment in a line: HS-SY-II xenograft model as monotherapy (FIG. 22). Type of experiment: in vivo, nude mice. On the procedure: A human synovial sarcoma cell line HS-SY-II, which had been cultured in a DMEM containing 10% FBS, and penicillin-streptomycin, was adjusted to a concentration of 1×10^8 cells/mL with 50% Geltrex (Thermo Fisher Scientific) in Hanks' Balanced Salt Solution to prepare a cell suspension. The cell suspension was inoculated in a volume of 100 μL into a subcutaneous part of a right flank of nude mice, 5 weeks of ages (CAnN.Cg-Foxnlnu/CrlCrlj, female, Charles River Laboratories Japan Inc.). Thirty days after cell inoculation (Day 1), the shortest diameter and the longest diameter of a tumor in each mouse were measured by using an electronic digital caliper (Digimatic™ caliper, Mitutoyo Corporation), so as to calculate the volume of the tumor in accordance with the following calculation formulae: […]
On the basis of the volumes of tumors obtained on Day 1, the mice were grouped such that averages of the tumor volumes were substantially equal among the groups. The experiment was conducted on groups each consisting of six mice. Compound (1) was dissolved in DMSO and a solution was stored in the freezer before use. Immediately before the administration, the stock solution was diluted with saline. The test compound in saline was intravenously once-weekly administered at 90 μg/kg or 180 μg/kg for 2 weeks (on Day 1 and Day 8).

As to `C=C1C[C@@H]2CC[C@@]34C[C@H]5O[C@H]6[C@@H](O3)[C@H]3O[C@H](CC[C@@H]3O[C@H]6C5O4)CC(=O)O[C@@H]3[C@@H](C)[C@@H]4O[C@@H]5C[C@]6(C[C@@H]7O[C@]8(C[C@H](C)[C@@H]9O[C@H](CN)[C@H](O)C[C@@H]9O8)C[C@H](C)[C@@H]7O6)O[C@@H]5C[C@@H]4O[C@H]3C[C@H]3O[C@@H](CC[C@@H]1O2)C[C@@H](C)C3=C` (stereo in doubt) [Compound (1)], the “antitumor efficacy with CTX” value in experiment [1] (20 μg/kg + cetuximab 10 mg/kg) was “tended to be stronger than that of CTX monotherapy”; in experiment [1] (180 μg/kg and 60 μg/kg + cetuximab 10 mg/kg), “stronger than that of CTX monotherapy with tumor regression”. In addition, the “Tumor Regression (%)” value in experiment [2] (0.18 mg/kg i.v. Day 1 and Day 8) came to 99%. Moreover, the antitumor effect result in experiment [2] (180 μg/kg i.v. Day 1 and Day 8) is on record as “tumor regression”; in experiment [2] (45 and 90 μg/kg i.v. Day 1 and Day 8), “tumor growth delay”; in experiment [4] (90 μg/kg i.v. Day 1 and Day 8) it was “tumor growth delay”; in experiment [4] (180 μg/kg i.v. Day 1 and Day 8), “tumor regression”. The “effect on microtubule dynamics (EB3-AG comet-like structures)” value in experiment [3] is recorded as “suppress the MT dynamics”.
